Experimental data published in PubChem BioAssay (NCI).
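Step 1: Grow cells in 96-well plates. Step 2: Expose to compound for 48 hours at 5 concentrations. Step 3: Interpolate endpoints linearly; if unreached, use highest concentration. The concentration for 50% growth inhibition is given as GI50. TGI: concentration producing complete growth inhibition.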 Where a SMILES comes first, the peptide text is derived from it.

How the values were obtained:
Test in all cases: growth of human tumour cells (NCI), 48 h
[1] = system: A549 NSCLC
[2] = system: HOP-92 NSCLC
[3] = system: KM12 colon
[4] = system: LOX IMVI melanoma
[5] = system: M14 melanoma
[6] = system: SF-268 CNS
[7] = system: SNB-75 CNS
[8] = system: HL-60(TB) leukemia
[9] = system: MDA-MB-231 breast
[10] = system: RXF 393 renal

Structure (SMILES)	TGI [1] [µM]	TGI [2] [µM]	TGI [3] [µM]	TGI [4] [µM]	TGI [5] [µM]	TGI [6] [µM]	TGI [7] [µM]	TGI [8] [µM]	TGI [9] [µM]	TGI [10] [µM]	GI50 [2] [µM]	GI50 [10] [µM]
CC1C(c2ccc(F)cc2)c2cc3c(cc2OC1N1CCCC1)OCO3 (centres undefined)	> 100	45.7	> 100	> 100	> 100	> 100	> 100					
CNC(=S)/C(=N\Nc1nc[nH]c1C(N)=O)C(N)=S	> 100	99.4	24.4	> 37.9	> 100	> 54.2	71.9	7.83	> 24	> 100		
CCN1CC2=C(N=c3s/c(=C\c4ccc(Cl)cc4)c(=O)n3C2c2ccc(Cl)cc2)/C(=C/c2ccc(Cl)cc2)C1 (centres undefined)	> 100		> 100	> 100	> 100	80.6	9.74	> 100	> 100	15.4		
CCN(CC)c1ccc(/C=C(\C#N)c2nc(N)nc(N3N=C(C)CC3(C)C)n2)cc1	32.3	22.4	> 100	32.7	> 45.5	> 54	28.8	> 100	26.8	23.7		
O=c1c(O)c(-c2ccc(O)cc2O)oc2cc(O)cc(O)c12	> 100	> 100	> 100	> 100	> 100	> 100	> 100	> 100	> 100			
O=c1[nH]c2ccc(C(F)(F)F)cc2nc1-c1ccccc1	> 100	> 100		> 100	> 100	> 100	> 100	> 100	> 100	> 100		
CSc1ccc2c(cc1=O)[C@@H](NC(C)=O)CCc1cc(O)c(O)c(O)c1-2	45	70.6	41.4	> 100	36	38.6	53	> 100	72.2	> 100		
COC(CN(C)C(=O)C(C)NC(=O)c1ccccc1)OC (centres undefined)	> 100	> 100	> 100		> 100	> 100	> 100		> 100	> 100		
Cc1[nH]c2ncn3nc(C(Cl)(Cl)Cl)nc3c2c1Cc1ccccc1	> 100		> 100		> 100	> 100	> 100	> 100	> 100	> 100		
Clc1ccc(-c2nn3c(CCCCCCCCc4nnc5sc(-c6ccc(Cl)cc6)nn45)nnc3s2)cc1	> 64.5	> 100	61.3	24.5	67.5	> 100	75.3		> 100	> 62.4		
COc1ccc2c(c1)C(N)CC2=O (centres undefined)	38.2	> 100	> 100		> 100	> 100	> 100		> 100	36.3		
C=C1C(=O)O[C@@H]2[C@H]3O[C@]3(C)CCC=C(C)CC[C@@H]12	202	26.5	53.6	21.2		62.6	123	23.4		27.4		
CCOC(=O)CN1CCNCCN(CC(=O)OCC)CCNCC1	> 100	> 100	> 100	> 100			> 100	> 100	> 100	> 100		
CC1NC(=O)CNC(=O)CNC(=O)C(Cc2ccc(O)cc2)NC(=O)C(C(C)C)NC(=O)C(C)NC1=O (centres undefined) (cyclo(GGAAVY); configuration not given here)	> 100	> 100	> 100	> 100		> 100	> 100	> 100		> 100	> 100	> 100
C=C[C@@H]1OC(=O)O[C@H]1CO	> 100		> 100	> 100	> 100	> 100	> 100		> 100			
O=C(Cn1c(=O)ccn(C2OC(CO)C(O)C2F)c1=O)c1ccc(F)cc1 (centres undefined)	> 100		> 100	> 100		> 100	> 100	> 100	> 100	> 100		
CCN(CC)CCn1c(C(C)(C)C)nc2ccccc21	> 100	> 100	> 100		> 100	> 100	> 100	> 100		> 100		
CC1=C2C(O)C(C(C)C(=O)NCC(C)C)CCC2(C)C=CC1=O (centres undefined)	> 100	> 100	> 100	> 100		> 100	> 100	> 100		> 100		

Structure (SMILES)	TGI [1] [µM]	TGI [2] [µM]	TGI [3] [µM]	TGI [4] [µM]	TGI [5] [µM]	TGI [6] [µM]	TGI [7] [µM]	TGI [8] [µM]	TGI [9] [µM]	TGI [10] [µM]	GI50 [2] [µM]	GI50 [10] [µM]
CCCCCCCCCOC(=O)c1cnc(Cl)cn1	64.8	> 100	33.4	34.4	36.3	46.3	51.5		35.6			
CSC(SC)=C1CC(=O)Nc2ccccc2C1=O	> 100	78.4	> 100	32.5	> 100	> 100		> 100	> 100	52.8		
CCOC(=O)C1(C(=O)OCC)C[C@]23OCCC(=O)[C@H]2[C@H]2C(=O)OC(C)(C)O[C@]23C1	> 100	> 100	> 100	> 100	> 100	> 100	> 100	> 100	> 100			
NC(N)=NCCCC(N=c1c2ccccc2n(O)c2ccccc12)C(=O)O (centres undefined)	> 100		> 100	> 100	> 100	> 100	87.6	58.5				
CSC1=N/C(=C\c2ccc(C)cc2)C(=O)N1CN1CCOCC1	> 100	> 100	> 100	> 100	> 100	> 100	> 100	> 100	> 100			
CN(C)CCCNc1c(O)c2c(c(O)c1Cl)C(=O)C=CC2=O	3.52	> 10	> 10	3.13	2.9		> 10		7.77			
CC/C(=N\NC(=O)c1cccnc1)c1ccc2c(c1)OCCO2	> 100		> 100	> 100	> 100	> 100	> 100	> 100	> 100	> 100		
c1ccc2c(c1)ccc1nc(-c3ccc4c(c3)OCO4)c3c(c12)CCCC3	> 100		24.2		> 100	88.1	> 100		44.3			
S=c1[nH]nc(COc2ccc3c(c2)CCCC3)n1/N=C/c1ccc(Cl)cc1	35.8	32.9	31.7	37	34.5	43		40.7	44.9	28.8		
NC(=O)NC(=O)c1cnccn1	> 100	> 100	> 100	> 100	> 100	> 100			> 100	> 100		
CCOC(=O)CC(=O)NC1CC2CCC1(C)C2(C)C (centres undefined)	> 100		> 100	> 100	> 100	> 100	> 100	> 100	> 100	> 100		
Cc1ccc(/C=C2\CN(C)CC3=C2OC(N)=C(C#N)C3c2ccc(C)cc2)cc1 (centres undefined)	49.4	15.9	39.3	27.2	43.9	> 100		> 100	> 63.7	28.3		
COc1c(CC=C(C)C)c(O)c(C(CC(C)C)c2c(O)c(C(C)=O)c(O)c3c2OC(C(C)(C)O)C3)c(O)c1C(C)=O (centres undefined)	> 12.5	5.21		> 12.5	> 12.5	> 12.5		6.57		8.56		
CN(C1=NCCO1)c1cccc2ccccc12	> 10		> 10	> 10	> 10	> 10	> 10	> 10	> 10	> 10		
C=C(O)c1ccccc1C#Cc1ccccc1C(=O)OC	> 10		> 10	> 10	> 10	> 10	> 10	> 10	> 10	> 10		
C[C@]12CC[C@@H]3c4ccc(O)cc4CC[C@H]3[C@@H]1C/C(=C\c1ccc([N+](=O)[O-])cc1)C2=O	> 100		> 100	> 100	> 100	> 100	> 100		> 100	50.4		
CCOC(=O)c1nc2cc(N3CCOCC3)c(F)cc2[nH]c1=O	> 100	> 100	> 100		> 100	> 100	> 100	> 100	> 100	> 100		
CC(=O)/C(C=Nc1c(C)n(C)n(-c2ccccc2)c1=O)=C(/C)O	> 100	> 100	> 100	> 100	> 100		> 100	> 100	> 100	> 100		
